From patent US20160296499A1, “Spiroindoline Antiparasitic Derivatives” (ZOETIS SERVICES LLC, priority 2013, published 2016)
Like-named read-outs stand apart in the source and are kept apart here.

Columns and labels:
Haemonchus contortus L3 = assay: Haemonchus contortus, Larvae Stage 3 (HcL3) In Vitro Assay; details: Haemonchus contortus
[1] = test system: Dirofilaria immitis microfilariae; assay: Dirofilaria immitis, Microfilariae (DiMF) In Vitro Assay; details: Dirofilaria immitis
[2] = molecular target: T1, bovine vesicular acetylcholine transporter (VAChT) (Bos taurus, UniProt E1BK36); assay: Radioligand Binding Assay; details: Bovine binding Ki, CHO-K1 membranes with recombinant bovine VAChT, [3H]Compound X6 0.3 nM
T1 sequence (E1BK36 1-524): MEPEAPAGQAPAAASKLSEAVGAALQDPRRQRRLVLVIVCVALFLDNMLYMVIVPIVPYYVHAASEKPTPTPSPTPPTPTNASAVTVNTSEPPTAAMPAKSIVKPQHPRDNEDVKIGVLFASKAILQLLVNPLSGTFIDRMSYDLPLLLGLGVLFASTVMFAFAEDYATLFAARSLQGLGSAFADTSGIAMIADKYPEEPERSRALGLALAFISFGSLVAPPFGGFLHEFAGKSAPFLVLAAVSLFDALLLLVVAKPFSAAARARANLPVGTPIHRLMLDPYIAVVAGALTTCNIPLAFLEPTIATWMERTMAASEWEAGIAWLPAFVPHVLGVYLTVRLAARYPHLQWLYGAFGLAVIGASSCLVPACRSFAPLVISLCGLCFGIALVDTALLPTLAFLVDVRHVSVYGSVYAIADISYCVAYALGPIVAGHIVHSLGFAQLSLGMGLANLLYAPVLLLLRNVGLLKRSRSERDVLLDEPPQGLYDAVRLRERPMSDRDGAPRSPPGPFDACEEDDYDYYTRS

[3] = 96 h, read-out: HcL3 MEC, Minimal Effective Concentration whereby worm motility is inhibited by approximately 70%, 37° C., tested 0.001-100 μM
[4] = 72 h, read-out: Di MF, MEC, decrease in microfilariae motility by visual assessment, curve starting at 100 μM
[5] = 96 hours, 37° C., read-out: HcL3 MEC

Structure (SMILES)	minimal effective concentration (Haemonchus contortus L3; [3]) [µM]	minimal effective concentration [1, 4] [µM]	Ki [2] [nM]	minimal effective concentration (Haemonchus contortus L3; [5]) [µM]	minimal effective concentration ([1]; 72 hours, read-out: Di MF) [µM]
N#Cc1ccc(-c2ccc3c(c2)C2(CCN(C/C=C/c4ccc(Cl)c(Cl)c4)CC2)CN3C(=O)NCc2ccnc(F)c2)cn1 [Example 116, 5-(6-cyano-3-pyridyl)-1′-[(E)-3-(3,4-dichlorophenyl)allyl]-N-[(2-fluoro-4-pyridyl)methyl]spiro[indoline-3,4′-piperidine]-1-carboxamide]	5	4	58.5	–	–
COc1ccc2ccc(CN3CCC4(CC3)CN(C(=O)NCc3ccnc(F)c3)c3ccc(C#N)cc34)c(C)c2n1 [Example 117, 5-cyano-N-[(2-fluoro-4-pyridyl)methyl]-1′-[(2-methoxy-8-methyl-7-quinolyl)methyl]spiro[indoline-3,4′-piperidine]-1-carboxamide]	10	10	191	–	–
COc1ccc2ccc(CN3CCC4(CC3)CN(C(=O)NCc3ccnc(Cl)c3)c3ccc(C#N)cc34)c(C)c2n1 [Example 118, N-[(2-chloro-4-pyridyl)methyl]-5-cyano-1′-[(2-methoxy-8-methyl-7-quinolyl)methyl]spiro[indoline-3,4′-piperidine]-1-carboxamide]	3.3	57.4	28.4	–	–
COc1ccc(-c2ccc3c(c2)C2(CCN(C/C=C/c4ccc(Cl)cc4)CC2)CN3C(=O)NCc2ccnc(Cl)c2)cn1 [Example 119, 1′-[(E)-3-(4-chlorophenyl)allyl]-N-[(2-chloro-4-pyridyl)methyl]-5-(6-methoxy-3-pyridyl)spiro[indoline-3,4′-piperidine]-1-carboxamide]	100	10	177	–	–
N#Cc1ccc(-c2ccc3c(c2)C2(CCN(C/C=C/c4ccc(C(F)(F)F)cc4)CC2)CN3C(=O)NCc2ccnc(Cl)c2)cn1 [Example 120, N-[(2-chloro-4-pyridyl)methyl]-5-(6-cyano-3-pyridyl)-1′-[(E)-3-[4-(trifluoromethyl)phenyl]allyl]spiro[indoline-3,4′-piperidine]-1-carboxamide]	100	1.2	13900	–	–
O=C(NCc1ccnc(Cl)c1)N1CC2(CCN(C/C=C/c3ccc(Cl)cc3)CC2)c2c(OC(F)(F)F)ccc(Cl)c21 [Example 121, (E)-7-chloro-1′-(3-(4-chlorophenyl)allyl)-N-((2-chloropyridin-4-yl)methyl)-4-(trifluoromethoxy)spiro[indoline-3,4′-piperidine]-1-carboxamide]	100	6.9	1260	–	–
O=C(NCc1ccnc(Cl)c1)N1CC2(CCN(C/C=C/c3ccc(Cl)cc3)CC2)c2c(F)cc(C(F)(F)F)cc21 [Example 122, (E)-1′-(3-(4-chlorophenyl)allyl)-N-((2-chloropyridin-4-yl)methyl)-4-fluoro-6-(trifluoromethyl)spiro[indoline-3,4′-piperidine]-1-carboxamide]	–	–	32.3	0.5	10
Cc1ccc2c(c1)C1(CCN(C/C=C/c3ccc(Cl)c(Cl)c3)CC1)CN2C(=O)NCc1ccnc(Cl)c1 [Example 123, (E)-N-((2-chloropyridin-4-yl)methyl)-1′-(3-(3,4-dichlorophenyl)allyl)-5-methylspiro[indoline-3,4′-piperidine]-1-carboxamide]	–	–	20.8	1	10.2
O=C(NCc1ccnc(Cl)c1)N1CC2(CCN(C/C=C/c3ccc(C(F)(F)F)cn3)CC2)c2ccc(C(F)(F)F)cc21 [Example 124, (E)-N-((2-chloropyridin-4-yl)methyl)-6-(trifluoromethyl)-1′-(3-(5-(trifluoromethyl)pyridin-2-yl)allyl)spiro[indoline-3,4′-piperidine]-1-carboxamide]	1	10	106	–	–
COc1ccc(/C=C/CN2CCC3(CC2)CN(C(=O)NCc2ccnc(Cl)c2)c2cc(C(F)(F)F)ccc23)cc1 [Example 125, (E)-N-((2-chloropyridin-4-yl)methyl)-1′-(3-(4-methoxyphenyl)allyl)-6-(trifluoromethyl)spiro[indoline-3,4′-piperidine]-1-carboxamide]	1	10	20.4	–	–
O=C(NCc1ccnc(Cl)c1)N1CC2(CCN(C/C=C/c3ccc(Cl)cc3)CC2)c2cc(F)c(C(F)(F)F)cc21 [Example 126, (E)-1′-(3-(4-chlorophenyl)allyl)-N-((2-chloropyridin-4-yl)methyl)-5-fluoro-6-(trifluoromethyl)spiro[indoline-3,4′-piperidine]-1-carboxamide]	–	–	33	1	10
O=C(NCc1ccnc(F)c1)N1CC2(CCN(C/C=C/c3ccc(Cl)cc3)CC2)c2ccc(OC(F)(F)F)cc21 [Example 127, (E)-1′-(3-(4-chlorophenyl)allyl)-N-((2-fluoropyridin-4-yl)methyl)-6-(trifluoromethoxy)spiro[indoline-3,4′-piperidine]-1-carboxamide]	1	10	78.4	–	–
O=C(NCc1ccnc(Cl)c1)N1CC2(CCN(C/C=C/c3ccc(C(F)(F)F)cc3)CC2)c2cc(Cl)c(F)cc21 [Example 128, (E)-5-chloro-N-((2-chloropyridin-4-yl)methyl)-6-fluoro-1′-(3-(4-(trifluoromethyl)phenyl)allyl)spiro[indoline-3,4′-piperidine]-1-carboxamide]	1	3.3	44	–	–
O=C(NCc1ccnc(Cl)c1)N1CC2(CCN(C/C=C/c3ccc(Cl)c(Cl)c3)CC2)c2cc(F)c(C(F)(F)F)cc21 [Example 129, (E)-N-((2-chloropyridin-4-yl)methyl)-1′-(3-(3,4-dichlorophenyl)allyl)-5-fluoro-6-(trifluoromethyl)spiro[indoline-3,4′-piperidine]-1-carboxamide]	–	–	32.8	1.5	10
O=C(NCc1ccnc(Cl)c1)N1CC2(CCN(C/C=C/c3ccc(OC(F)(F)F)cc3)CC2)c2ccc(C(F)(F)F)cc21 [Example 130, (E)-N-((2-chloropyridin-4-yl)methyl)-1′-(3-(4-(trifluoromethoxy)phenyl)allyl)-6-(trifluoromethyl)spiro[indoline-3,4′-piperidine]-1-carboxamide]	1.8	18.2	193	–	–
O=C(NCc1ccnc(Cl)c1)N1CC2(CCN(C/C=C/c3ccc(Cl)c(Cl)c3)CC2)c2c(Cl)cccc21 [Example 131, (E)-4-chloro-N-((2-chloropyridin-4-yl)methyl)-1′-(3-(3,4-dichlorophenyl)allyl) spiro[indoline-3,4′-piperidine]-1-carboxamide]	3.3	10	184	–	–
N#Cc1cc2c(cc1C(F)(F)F)N(C(=O)NCc1ccnc(Cl)c1)CC21CCN(C/C=C/c2ccc(Cl)c(Cl)c2)CC1 [Example 132, (E)-N-((2-chloropyridin-4-yl)methyl)-5-cyano-1′-(3-(3,4-dichlorophenyl)allyl)-6-(trifluoromethyl)spiro[indoline-3,4′-piperidine]-1-carboxamide]	–	–	49.9	3.3	3.3
